Measurements taken from ChEMBL document CHEMBL4834404, “Template-Hopping Approach Leads to Potent, Selective, and Highly Soluble Bromo and Extraterminal Domain (BET) Second Bromodomain (BD2) Inhibitors” (J Med Chem, 2021).
In brackets after ≈: the same amount, converted by molar mass.

Assays:
[1] = target: Bromodomain-containing protein 4 (Homo sapiens, UniProt O60885, Y97A); assay: Inhibition of 6His-Thr-BRD4 (1 to 477 residues) BD1 Y97A mutant (unknown origin) incubated for 30 mins by TR-FRET assay
[2] = target: Bromodomain-containing protein 4 (Homo sapiens, UniProt O60885, Y390A); assay: Inhibition of 6His-Thr-BRD4 (1 to 477 residues) BD2 domain Y390A mutant (unknown origin) incubated for 30 mins by TR-FRET assay
[3] = species: Homo sapiens; assay: Selectivity index, ratio of pIC50 of BRD4 BD1 (unknown origin) to pIC50 of BRD4 BD2 (unknown origin)
[4] = Solubility of compound by CLND assay; type: physicochemical
[5] = Permeability of compound; type: ADME; conditions: not told; read-out: permeability
[6] = Solubility of the compound in pH 6.5 FaSSIF at 1 mg measured after 4 hrs by HPLC analysis; type: physicochemical

SMILES	IC50 [1] [µM]	IC50 [2] [µM]	Ratio pIC50 [3]	solubility kinetic [4] [µg/mL]	Papp [5] [×10⁻⁶ cm/s]	solubility at 4 h [6] [µg/mL]
CCNC(=O)c1ccc(OCc2ncccn2)c(-c2cn(C)nn2)c1	> 50.1	1.58	> 30	≥ 103	3.7	–
CCNC(=O)c1cc(Cc2ccc(OC)cc2)nc(-c2cn(C)nn2)c1	> 50.1	0.794	> 65	53 (≈ 151 µM)	32	–
Cc1cn(-c2ccccc2OCc2ccccc2)nn1	31.6	15.8	2	96 (≈ 362 µM)	–	–
CCNC(=O)c1cc(Cc2ccccc2)nc(-c2cn(C)nn2)c1	–	0.1	170	≥ 157	32.5	–
Cn1cc(-c2cc(C(=O)NCC[C@H]3CNCCO3)cc(Cc3ccccc3)n2)nn1	15.8	0.0631	250	≥ 189	4.8	–
CCNC(=O)c1ccc(OCc2ccc(OC)cc2)c(-c2cn(C)nn2)c1	20	0.316	65	≥ 142	39	–
Cn1cc(-c2ccccc2OCc2ccccc2)nn1	20	3.98	5	87 (≈ 328 µM)	–	–
CCNC(=O)c1cc(Cc2cccc(OC)c2)nc(-c2cn(C)nn2)c1	> 50.1	0.631	> 80	≥ 45	47	–
CCNC(=O)c1ccc(OCCc2ccccc2)c(-c2cn(C)nn2)c1	> 50.1	2.51	> 20	95 (≈ 271 µM)	49	–
C[C@H](Oc1ccc(C(=O)NCC[C@H]2CNCCO2)cc1-c1cn(C)nn1)c1ccccn1	7.94	0.0631	125	≥ 182	< 0.3	–
CCNC(=O)c1ccc(OCc2ccncc2)c(-c2cn(C)nn2)c1	12.6	1	15	≥ 115	30	–
CCNC(=O)c1ccc(O[C@@H](C)c2ccccc2)c(-c2cn(C)nn2)c1	3.98	0.0398	100	105 (≈ 300 µM)	42	–
Cc1nnc(-c2ccccc2OCc2ccccc2)o1	> 50.1	12.6	> 4	≥ 252	–	–
CCNC(=O)c1ccc(OCc2cccc(OC)c2)c(-c2cn(C)nn2)c1	20	0.251	80	≥ 139	42	–
CCNC(=O)c1ccc(OCc2ccccc2OC)c(-c2cn(C)nn2)c1	20	0.126	160	≥ 162	48	–
C[C@H](Oc1ccc(C(=O)N[C@H]2CC[C@H](O)CC2)cc1-c1cn(C)nn1)c1ccccn1	7.94	0.398	20	≥ 188	1.3	–
CNC(=O)c1cc(C(=O)NC2CC2)cn(Cc2ccccc2)c1=O [GSK620]	–	–	–	≥ 154	20	–
C[C@H](Oc1ccc(C(N)=O)cc1-c1cn(C)nn1)c1ccccn1	6.31	0.251	25	131 (≈ 405 µM)	4.7	–
CCNC(=O)c1cc(Cc2ccccc2OC)nc(-c2cn(C)nn2)c1	39.8	0.2	200	62 (≈ 176 µM)	37	–
Cn1cc(-c2cc(C(=O)NCC3CCOCC3)cc(Cc3ccccc3)n2)nn1	> 50.1	0.316	> 160	≥ 142	22	–
CCNC(=O)c1cc(Cc2ccccc2F)nc(-c2cn(C)nn2)c1	20	0.2	100	66 (≈ 194 µM)	30	–
CCNC(=O)c1cc(Cc2cccc(F)c2)nc(-c2cn(C)nn2)c1	15.8	0.251	65	73 (≈ 215 µM)	41	–
CCNC(=O)c1ccc(O[C@@H](C)c2ccccn2)c(-c2cn(C)nn2)c1	7.94	0.0794	100	≥ 127	15	–
Cn1cc(-c2cc(C(N)=O)cc(Cc3ccccc3)n2)nn1	12.6	0.251	50	40 (≈ 136 µM)	14	–

SMILES	IC50 [1] [µM]	IC50 [2] [µM]	Ratio pIC50 [3]	solubility kinetic [4] [µg/mL]	Papp [5] [×10⁻⁶ cm/s]	solubility at 4 h [6] [µg/mL]
Cn1cc(-c2cc(C(=O)NCCCC3CCNCC3)cc(Cc3ccccc3)n2)nn1	10	0.0251	400	≥ 134	< 0.3	–
CCNC(=O)c1ccc(OCC2CCOCC2)c(-c2cn(C)nn2)c1	–	–	–	≥ 208	11	–
C[C@H](Oc1ccc(C(=O)NCC[C@@H]2CNCCO2)cc1-c1cn(C)nn1)c1ccccn1	6.31	0.0251	250	≥ 177	< 0.3	–
C[C@H](Oc1ccc(C(=O)N[C@H]2[C@@H]3COC[C@@H]32)cc1-c1cn(C)nn1)c1ccccn1	1.58	0.0251	65	≥ 169	4.2	–
CNC(=O)c1ccc(O[C@@H](C)c2ccccn2)c(-c2cn(C)nn2)c1	10	0.126	80	≥ 138	7	–
C[C@H](Oc1ccc(C(=O)NC2CCOCC2)cc1-c1cn(C)nn1)c1ccccn1	15.8	0.126	100	≥ 194	5.9	–
Cn1cc(-c2cc(C(=O)NCCC[C@@]3(F)CCCNC3)cc(Cc3ccccc3)n2)nn1	5.01	0.01	500	≥ 172	2.3	–
CCNC(=O)c1ccc(OCc2ccccn2)c(-c2cn(C)nn2)c1	39.8	0.316	125	114 (≈ 338 µM)	14	–
CC(=O)Nc1ccccc1OCc1ccccc1	–	–	–	≥ 113	–	–
C[C@H](Oc1ccc(C(=O)NCC2CCOCC2)cc1-c1cn(C)nn1)c1ccccn1	31.6	0.501	65	≥ 192	5.5	–
Cc1cc(-c2ccccc2OCc2ccccc2)on1	10	3.98	3	1 (≈ 3.77 µM)	–	–
CC(=O)Nc1c(F)cc(C(=O)N[C@H]2CC[C@H](O)CC2)cc1O[C@@H](C)c1ccccc1 [GSK046]	–	–	–	–	1.7	996 (≈ 2400 µM)
Cn1cc(-c2cc(C(=O)N[C@H]3[C@@H]4COC[C@@H]43)cc(Cc3ccccc3)n2)nn1	5.01	0.0501	100	≥ 145	24	–
CCNC(=O)c1cc(Cc2ccc(F)cc2)nc(-c2cn(C)nn2)c1	20	0.251	80	75 (≈ 221 µM)	33	–
Cn1cc(-c2cc(C(=O)NC3CC3)cc(Cc3ccccc3)n2)nn1	–	0.126	125	≥ 76	36	–
C[C@H](Oc1ccc(C(=O)NCCC[C@@]2(F)CCCNC2)cc1-c1cn(C)nn1)c1ccccn1	3.98	0.01	400	≥ 193	0.53	–
CCNC(=O)c1cc(Cc2ccccc2)nc(C(=O)NC)c1	–	–	–	≥ 102	39	310 (≈ 1040 µM)
Cn1cc(-c2cc(C(=O)NCC[C@]3(F)CCCNC3)cc(Cc3ccccc3)n2)nn1	6.31	0.0251	250	≥ 181	1.9	–
Cn1cc(-c2cc(C(=O)NC3CCOCC3)cc(Cc3ccccc3)n2)nn1	20	0.126	160	≥ 141	27	–
CCNC(=O)c1ccc(OCc2cccnc2)c(-c2cn(C)nn2)c1	> 50.1	1	> 50	103 (≈ 305 µM)	18	–
CCNC(=O)c1ccc(O[C@H](C)c2ccccc2)c(-c2cn(C)nn2)c1	39.8	1.58	25	119 (≈ 340 µM)	42	–
Cc1nc(-c2ccccc2OCc2ccccc2)n[nH]1	> 50.1	7.94	> 6	≥ 70	–	–
CCNC(=O)c1ccc(OCc2ccccc2)c(-c2cn(C)nn2)c1	12.6	0.126	100	46 (≈ 137 µM)	4.6	–
Cn1cc(-c2cc(C(=O)NCC[C@@H]3CNCCO3)cc(Cc3ccccc3)n2)nn1	12.6	0.0316	400	≥ 138	1.8	–
